In paper PMC11689655, “High-throughput screening of dual-target inhibitors for SARS-CoV-2 main protease and papain-like protease from Chebulae Fructus: in silico prediction and experimental verification” (Frontiers in Microbiology, 2024):
Read-outs that look alike come from different tables or passages of the source.

Legend:
[1] = Cytotoxicity by CCK8 assay; conditions: African green monkey
[2] = tested on: SARS-CoV-2 wild-type; experiment: Antiviral activity (CPE inhibition) in Vero E6 cells, wild-type; assay type: cell-based; conditions: read-out: EC50 against SARS-CoV-2 wild-type strain
[3] = molecular target: T1, SARS-CoV-2 PL^pro (Severe acute respiratory syndrome coronavirus 2, UniProt P0DTD1); experiment: FRET enzymatic inhibition assay, PL^pro; assay type: biochemical
[4] = in vitro; conditions: African green monkey
[5] = molecular target: T1, SARS-CoV-2 PL^pro; experiment: SPR assay, PL^pro; assay type: binding; conditions: Biacore T200, CM5 chip, kinetics analysis
[6] = molecular target: T2, SARS-CoV-2 M^pro (Severe acute respiratory syndrome coronavirus 2, UniProt P0DTD1); experiment: biochemical; conditions: FRET
[7] = molecular target: T2, SARS-CoV-2 M^pro; experiment: biochemical; assay type: binding; conditions: SPR, Biacore T200, CM5 chip, kinetics analysis
[8] = Severe acute respiratory syndrome coronavirus 2, Vero C1008, MOI = 0.01, 48 h

**Q.** Which CC50 [1] does the source give for `O=C(OC[C@H]1O[C@@H](OC(=O)c2cc(O)c(O)c(O)c2)[C@H](OC(=O)c2cc(O)c(O)c(O)c2)[C@@H](OC(=O)c2cc(O)c(O)c(O)c2)[C@@H]1OC(=O)c1cc(O)c(O)c(O)c1)c1cc(O)c(O)c(O)c1` [PGG, 1,2,3,4,6-penta-O-galloyl-β-D-glucose] here?
**A.** > 100 µM

**Q.** And the EC50 [2, 8]?
**A.** 8.22 µM

**Q.** With `Cn1cnc(Cn2c(=O)[nH]/c(=N\c3cc4cn(C)nc4cc3Cl)n(Cc3cc(F)c(F)cc3F)c2=O)n1` [S-217622, reference compound] as the molecule, how does the EC50 ([2]; MOI = 0.01, 48 h) read?
**A.** 0.05 µM

**Q.** With `O=C(OC[C@H]1O[C@@H](OC(=O)c2cc(O)c(O)c(O)c2)[C@H](OC(=O)c2cc(O)c(O)c(O)c2)[C@@H](OC(=O)c2cc(O)c(O)c(O)c2)[C@@H]1O)c1cc(O)c(O)c(O)c1` [TGG, 1,2,3,6-tetra-O-galloyl-β-D-glucose] as the molecule, how does the IC50 ([3]; 1.0 μM PL^pro, 10 μM substrate, mean ± SD, n = 3, read-out: IC50 against PL^pro) read?
**A.** 27.4 ± 2.43 µM

**Q.** What about the inhibition at 40 µM ([3]; compound 40 μM, read-out: inhibition effect on PL^pro) of the same molecule?
**A.** > 60%

**Q.** And the CC50 [4]?
**A.** > 100 µM

**Q.** What about the Kd [5] of the same molecule?
**A.** 0.776 µM

**Q.** And the IC50 ([6]; 0.2 μM M^pro, 20 μM substrate, mean ± SD, n = 3, read-out: IC50 against M^pro)?
**A.** 1.33 ± 0.47 µM

**Q.** What about the inhibition at 40 µM ([6]; compound 40 μM, read-out: inhibition effect on M^pro) of the same molecule?
**A.** > 60%

**Q.** And the EC50 [2, 8]?
**A.** 13 µM

**Q.** And the Kd [7]?
**A.** 0.768 µM
